Assay results published in article PMC8016481, “Tachykinin signaling inhibits task-specific behavioral responsiveness in honeybee workers” (eLife, 2021).
“Also recorded” adds a separate entry of the source.

Legend:
honeybee TRPR = assay: Competitive binding of TRPs to TRPR in HEK293 cells (displacement of TAMRA-TRP2/TAMRA-TRP3); set-up: species or system Apis mellifera; details: for competitive binding (residual TAMRA-TRP binding): HEK293
ERK phosphorylation = ERK phosphorylation in brain of worker bees after TRP2 injection or TRP/TRPR knockdown (Western blot); type: in vivo, Apis mellifera ligustica; details: for ERK phosphorylation in brain: 6A
Experimental: Cells were seeded in 24-well plates and starved for 4 hr in serum-free medium to reduce background ERK1/2 activation and eliminate the effects of the change of medium. […] Protein concentration was determined according to the Bradford method using BSA as the standard and the absorption was measured at 595 nm (spectrophotometer DU800, Beckman Coulter, USA), then all the samples were kept in −80°C for further use. For Western blot, equal amounts of total cell lysate (20 μg/lane) were fractionated by SDS-PAGE (10%) and transferred to a PVDF membrane (Millipore, USA) using an iBlot dry blotting system (Invitrogen, USA). The membranes were blocked for 2 hr at room temperature and then incubated with rabbit monoclonal anti-pERK1/2 antibody (Cell Signaling Technology, USA) and anti-rabbit horseradish peroxidase-conjugated secondary antibody (Cell Signaling Technology) according to the manufacturers’ protocols. Antibody reactive bands were visualized using Pierce ECL western blotting substrate (Thermo Fisher Scientific, USA) followed by photographic film exposure. Total ERK1/2 was assessed as a loading control after p-ERK1/2 chemiluminescence detection. Quantification analyses were performed using Gel-Pro Analyzer 4.0 software (Media Cybernetics, USA).
Three independent replicate groups per condition were collected and Western blot analyses were performed: Honeybee brains were carefully dissected and frozen at −80°C until protein extraction. Brain protein extractions were carried out according to our previously described method with some modifications. Briefly, the […] were homogenized with lysis buffer (LB, 8 M urea, 2 M thiourea, 4% CHAPS, 20 mM Tris-base, 30 mM dithiothreitol). The mixture was homogenized for 30 min on ice and sonicated 20 s per 5 min during this time, then centrifuged at 12,000 g and 4°C for 10 min. Ice-cold acetone was added to the collected supernatants, and then the mixture was kept on ice for 30 min for protein precipitation. Subsequently, the mixture was centrifuged at 12,000 g and 4°C for 10 min. The supernatant was discarded and the pellets were resolved in LB and kept at −20°C for further use. Western blot analyses were performed as described in 'TRP/TRPR signaling targets: cAMP, Ca^2+, and ERK' section.

## ALMGFQGVRa [TRP2, honeybee tachykinin-related peptide 2, synthesized by SynPeptide]
Honeybee TRPR; Log (M) -4, replicate 1
  competitive binding (residual TAMRA-TRP binding): 6.8655
Honeybee TRPR; Log (M) -4, replicate 2
  competitive binding (residual TAMRA-TRP binding): 5.4421
Honeybee TRPR; Log (M) -4, replicate 3
  competitive binding (residual TAMRA-TRP binding): 6.7148
Honeybee TRPR; Log (M) -5, replicate 1
  competitive binding (residual TAMRA-TRP binding): 5.4278
Honeybee TRPR; Log (M) -5, replicate 2
  competitive binding (residual TAMRA-TRP binding): 4.8584
Honeybee TRPR; Log (M) -5, replicate 3
  competitive binding (residual TAMRA-TRP binding): 7.2943
Honeybee TRPR; Log (M) -6, replicate 1
  competitive binding (residual TAMRA-TRP binding): 7.7659
Honeybee TRPR; Log (M) -6, replicate 2
  competitive binding (residual TAMRA-TRP binding): 5.3036
Honeybee TRPR; Log (M) -6, replicate 3
  competitive binding (residual TAMRA-TRP binding): 8.6345
Honeybee TRPR; Log (M) -7, replicate 1
  competitive binding (residual TAMRA-TRP binding): 18.9281
Honeybee TRPR; Log (M) -7, replicate 2
  competitive binding (residual TAMRA-TRP binding): 12.1701
Honeybee TRPR; Log (M) -7, replicate 3
  competitive binding (residual TAMRA-TRP binding): 11.2282
Honeybee TRPR; Log (M) -8, replicate 1
  competitive binding (residual TAMRA-TRP binding): 39.3417
Honeybee TRPR; Log (M) -8, replicate 2
  competitive binding (residual TAMRA-TRP binding): 38.9933
Honeybee TRPR; Log (M) -8, replicate 3
  competitive binding (residual TAMRA-TRP binding): 33.9876
Honeybee TRPR; Log (M) -9, replicate 1
  competitive binding (residual TAMRA-TRP binding): 62.0505
Honeybee TRPR; Log (M) -9, replicate 2
  competitive binding (residual TAMRA-TRP binding): 61.6487
Honeybee TRPR; Log (M) -9, replicate 3
  competitive binding (residual TAMRA-TRP binding): 64.6985
Honeybee TRPR; Log (M) -10, replicate 1
  competitive binding (residual TAMRA-TRP binding): 72.1434
Honeybee TRPR; Log (M) -10, replicate 2
  competitive binding (residual TAMRA-TRP binding): 80.3662
Honeybee TRPR; Log (M) -10, replicate 3
  competitive binding (residual TAMRA-TRP binding): 73.4408
Honeybee TRPR; Log (M) -11, replicate 1
  competitive binding (residual TAMRA-TRP binding): 96.7383
Honeybee TRPR; Log (M) -11, replicate 2
  competitive binding (residual TAMRA-TRP binding): 91.1557
Honeybee TRPR; Log (M) -11, replicate 3
  competitive binding (residual TAMRA-TRP binding): 93.6625
Honeybee TRPR; Log (M) -12, replicate 1
  competitive binding (residual TAMRA-TRP binding): 92.6094
Honeybee TRPR; Log (M) -12, replicate 2
  competitive binding (residual TAMRA-TRP binding): 98.3333
Honeybee TRPR; Log (M) -12, replicate 3
  competitive binding (residual TAMRA-TRP binding): 97.4974
Honeybee TRPR; competitive binding assays, HEK293 and Sf21 cells
  affinity of TRPR, TRP2 compared with TRP3: stronger binding affinity to the receptor TRPR than TRP3; also recorded: higher for TRP2 than for TRP3; also recorded: higher affinity to TRPR
ERK phosphorylation; NB, replicate 1
  ERK phosphorylation in brain: 0.0746
ERK phosphorylation; NB, replicate 2
  ERK phosphorylation in brain: 0.0650
ERK phosphorylation; NB, replicate 3
  ERK phosphorylation in brain: 0.0783
ERK phosphorylation; NF, replicate 1
  ERK phosphorylation in brain: 0.5050
ERK phosphorylation; NF, replicate 2
  ERK phosphorylation in brain: 0.5454
ERK phosphorylation; NF, replicate 3
  ERK phosphorylation in brain: 0.5933
ERK phosphorylation; PF, replicate 1
  ERK phosphorylation in brain: 0.2191
ERK phosphorylation; PF, replicate 2
  ERK phosphorylation in brain: 0.2416
ERK phosphorylation; PF, replicate 3
  ERK phosphorylation in brain: 0.2036
ERK phosphorylation; after injection into NBs, PFs and NFs, vs ddH2O
  level of phosphorylated ERK in brain: significantly increased
